One data set has as its system SJSA-1. As to the kind of experiment: Cell viability assay (MTT), SJSA-1. The following applies: read-out: SJSA-1 EC50 (72 h); 72 h, MTT.
Data set [1] can be described thus: Circular dichroism (CD) analysis of alpha-helicity. The format is physicochemical. On the procedure:
Peptide solutions were analyzed by CD spectroscopy using a Jasco J-815 spectropolarimeter (Jasco Inc., Easton, Md.) with the Jasco Spectra Manager Ver. 2 system software. A Peltier temperature controller was used to maintain temperature control of the optical cell. Results are expressed as mean molar ellipticity (deg cm^2 dmol^−1) as calculated from the equation [0]=θobs·MRW/10*l*c where θobs is the observed ellipticity in millidegrees, MRW is the mean residue weight of the peptide (peptide molecular weight/number of residues), 1 is the optical path length of the cell in centimeters, and c is the peptide concentration in mg/ml. Peptide concentrations were determined by amino acid analysis. Stock solutions of peptides were prepared in benign CD buffer (20 mM phosphoric acid, pH 2). The stocks were used to prepare peptide solutions of 0.05 mg/ml in either benign CD buffer or CD buffer with 50% trifluoroethanol (TFE) for analyses in a 10 mm pathlength cell. Variable wavelength measurements of peptide solutions were scanned at 4° C. from 195 to 250 nm, in 0.2 nm increments, and a scan rate 50 nm per minute. The average of six scans was reported.
Background: CD spectra are sensitive to the conformation of chiral molecules.

The subject of the next data set is Caspase 3. As to the kind of experiment: Caspase 3 detection assay in SJSA1 cells. It counts as cell-based. Particulars: SJSA1, 48 h, Caspase 3 activation over DMSO-treated cells.
Another data set concerns SJSA-1 cells. As to the kind of experiment: Cell lysis by peptidomimetic macrocycles (LDH release). The format is cell-based. Particulars: SJSA-1, 1 h. The method, boiled down: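 SJSA-1 cells plated the day before, switched to RPMI with 1% FBS, then exposed 1 h at 37 °C to macrocycle at final 50 μM to 6.25 μM in 0.5% DMSO. LDH released into the supernatant was measured by kit. Controls: 0.5% DMSO (non-lytic), 10 μM melittin and 1% Triton X-100 (lytic).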
For orientation: Release of lactate dehydrogenase indicates damage to the cell membrane.

The test system of a further data set is RKO. As to the kind of experiment: Cell viability assay (MTT), RKO. Particulars: read-out: RKO EC50 (72 h).

Bridge positions count the residues as written; N and C are the ends. Square brackets hold non-standard residues; d marks the D form. Peptide text beside a SMILES is read from it. R8 = C=CCCCCCC[C@@](C)(N)C(=O)O; S8 = C=CCCCCCC[C@](C)(N)C(=O)O; R5 = C=CCCC[C@@](C)(N)C(=O)O; S5 = C=CCCC[C@](C)(N)C(=O)O A value given as a limit tells only on which side of the number the result lay.

The EC50 is the concentration needed to bring the measured effect to its halfway point. On to `CC(=O)N[C@@H](CC(C)C)C(=O)N[C@H](C(=O)N[C@@H](Cc1ccccc1)C(=O)N[C@]1(C)CCCCCCC=CCCC[C@@](C)(C(=O)N[C@@H](C)C(=O)N[C@@H](C)C(=O)N[C@@H](C)C(=O)N[C@@H](C)C(=O)N[C@@H](C)C(=O)N[C@H](C)C(N)=O)NC(=O)[C@H](CC(C)C)NC(=O)[C@H](CCC(N)=O)NC(=O)[C@H](C)NC(=O)[C@H](Cc2c[nH]c3ccccc23)NC(=O)[C@H](Cc2ccc(O)cc2)NC(=O)[C@H](CCC(=O)O)NC1=O)[C@@H](C)O` (single isomer, unassigned) [compound 449], for which the EC50 in the data set on SJSA-1 is under 5 µM.
Still for that read-out and setting: next, `CC(=O)N[C@@H](CC(C)C)C(=O)N[C@H](C(=O)N[C@@H](Cc1ccccc1)C(=O)N[C@]1(C)CCCCCCC=CCCC[C@@](C)(C(=O)N[C@@H](C)C(=O)N[C@H](C)C(=O)N[C@@H](C)C(=O)N[C@@H](C)C(=O)N[C@@H](C)C(=O)N[C@H](C)C(N)=O)NC(=O)[C@H](CC(C)C)NC(=O)[C@H](CCC(N)=O)NC(=O)[C@H](C)NC(=O)[C@H](Cc2c[nH]c3ccccc23)NC(=O)[C@H](Cc2ccc(O)cc2)NC(=O)[C@H](CCC(=O)O)NC1=O)[C@@H](C)O` [compound 568]: 5 to 15 µM; `CC(=O)N[C@@H](CC(C)C)C(=O)N[C@H](C(=O)N[C@@H](Cc1ccccc1)C(=O)N[C@]1(C)CCCCCC/C=C/CCC[C@@](C)(C(=O)N[C@@H](C)C(=O)N[C@@H](C)C(=O)N[C@@H](C)C(=O)N[C@@H](C)C(=O)N[C@H](C)C(=O)N[C@H](C)C(N)=O)NC(=O)[C@H](CC(C)C)NC(=O)[C@H](CCC(N)=O)NC(=O)[C@H](C)NC(=O)[C@H](Cc2c[nH]c3ccccc23)NC(=O)[C@H](Cc2ccc(O)cc2)NC(=O)[C@H](CCC(=O)O)NC1=O)[C@@H](C)O` [compound 572]: under 5 µM.
Still for that read-out and setting: next, `CC(=O)N[C@@H](CC(C)C)C(=O)N[C@H](C(=O)N[C@@H](Cc1ccccc1)C(=O)N[C@]1(C)CCCC=CCCCCCC[C@@](C)(C(=O)N[C@@H](C)C(=O)N[C@@H](C)C(=O)N[C@@H](C)C(=O)N[C@@H](C)C(=O)N[C@@H](C)C(=O)N[C@H](C)C(N)=O)NC(=O)[C@H](CC(C)C)NC(=O)[C@H](CCC(N)=O)NC(=O)[C@H](C)NC(=O)[C@H](Cc2c[nH]c3ccccc23)NC(=O)[C@H](Cc2ccc(O)cc2)NC(=O)[C@H](CCC(=O)O)NC1=O)[C@@H](C)O` [compound 631] (Ac-LTF[R5]EYWAQL[S8]AAAAA[dA]-NH2; staple 4-11): under 5 µM.
Take `CC(=O)N[C@@H](CC(C)C)C(=O)N[C@H](C(=O)N[C@@H](Cc1ccccc1)C(=O)N[C@]1(C)CCCCCCC=CCCC[C@@](C)(C(=O)N[C@@H](CO)C(=O)N[C@@H](C)C(=O)N[C@@H](Cc2ccccc2)C(N)=O)NC(=O)[C@H](CC(C)C)NC(=O)[C@H](CCC(N)=O)NC(=O)[C@H](C)NC(=O)[C@H](Cc2c[nH]c3ccccc23)NC(=O)[C@H](Cc2ccc(O)cc2)NC(=O)[C@H](C)NC1=O)[C@@H](C)O` [compound 7] (Ac-LTF[R8]AYWAQL[S5]SAF-NH2; staple 4-11): the “% Helix 50% TFE compared to 50% TFE parent (CD)” value in data set [1] (50% TFE) is 137.3%. Further, the “Molar Ellipticity TFE − Molar Ellipticity Benign” value in data set [1] (222 nm) is listed as −20045.4 deg cm^2 dmol^−1. The “Molar Ellipticity 50% TFE (222 in 50% TFE)” value in data set [1] (222 nm, CD buffer with 50% TFE, 0.05 mg/ml, 4° C.) is reported as −19921.4 deg cm^2 dmol^−1. The “Molar Ellipticity Benign (222 in 0% TFE)” value in data set [1] (222 nm, benign CD buffer (20 mM phosphoric acid, pH 2), 0.05 mg/ml, 4° C.) is reported as 124 deg cm^2 dmol^−1. The “% Helix benign compared to 50% TFE parent (CD)” value in data set [1] (benign buffer) is −0.9%. For the same compound, the “caspase 0.3 μM” value with Caspase 3 (0.3 μM) is on record as 0.93. In addition, the “caspase 1 μM” value in the data set on Caspase 3 (1 μM) turned out to be 1.4. The “caspase 3 μM” value in the data set with Caspase 3 (3 μM) is given as 5.08. The “caspase 10 μM” value with Caspase 3 (10 μM) is on record as 21.7. Moreover, in the data set on Caspase 3 (30 μM), the “caspase 30 μM” value is recorded as 23.96. Also, in the data set on SJSA-1 cells (6.25 μM), the “6.25 μM % Lysed cells (1 h LDH)” value was 0%. The “25 μM % Lysed cells (1 h LDH)” value in the data set with SJSA-1 cells (25 μM) was 0%. Also, in the data set on SJSA-1 cells (50 μM), the “50 μM % Lysed cells (1 h LDH)” value was 0%. For the same compound, the EC50 in the data set with RKO was under 5 µM.

The values are drawn from patent US20200369728A1, “PEPTIDOMIMETIC MACROCYCLES AND USES THEREOF” (Aileron Therapeutics, Inc., priority 2015, published 2020).
